Values joined by “and” are separate entries in the source; they are usually repeats but may differ in a detail not shown here. Equal entries are not always repeated.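 Cultured in 96-well plates, cells were exposed to test compound for 48 hours across five concentrations. GI50: concentration for 50% inhibition of growth. TGI is the concentration that stops growth completely.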
Assays:
Assay in all cases: DTP human tumour cell line panel, 48 h
[1] = tested on: A498 renal
[2] = tested on: BT-549 breast
[3] = tested on: COLO 205 colon
[4] = tested on: HL-60(TB) leukemia
[5] = tested on: K-562 leukemia
[6] = tested on: M14 melanoma
[7] = tested on: MOLT-4 leukemia
[8] = tested on: OVCAR-3 ovarian
[9] = tested on: SN12C renal
[10] = tested on: UACC-62 melanoma

Compound | TGI [1] | TGI [2] | TGI [3] | TGI [4] | TGI [5] | TGI [6] | TGI [7] | TGI [8] | TGI [9] | TGI [10] [µM] | GI50 [3] | GI50 [5] | GI50 [6] | GI50 [7] | GI50 [8] | GI50 [9] | GI50 [10] [µM] | GI50 [2] | GI50 [4] | GI50 [1]
OC(COC(c1ccccc1)(c1ccccc1)c1ccccc1)C(O)CC1SCCS1 (configuration not stated) | 28.4 µM | 44.1 µM | 38.4 µM | > 100 µM | > 100 µM | 84.3 µM | 68.7 µM | 62.9 µM | 45.2 µM | 36 |  |  |  |  |  |  |  |  |  | 
COc1ccc(Cc2coc3ccccc3c2=O)cc1OC |  | > 100 µM | > 100 µM | > 100 µM | > 100 µM | > 100 µM | > 100 µM | > 100 µM | > 100 µM | > 100 |  |  |  |  |  |  |  |  |  | 
CC(C)(C)C1CCC2c3c([nH]c4ccccc34)C3C(=O)N(c4ccc(Cl)cc4)C(=O)C3C2C1 (configuration not stated) | > 10 µM | > 100 µM | > 100 µM | 38.8 µM and > 10 µM | 46.1 µM and > 10 µM | > 100 µM | 50.6 µM and > 10 µM | > 100 µM | > 100 µM | > 100 | 49.9 µM and > 10 µM | 21.1 µM and > 10 µM | 54.3 µM and > 10 µM | 23.6 µM and > 10 µM | 30.3 µM and > 10 µM | 37.4 µM and > 10 µM | > 100 |  |  | 
CC1=C(c2ccccc2)C(O)(c2ccccc2)C(C)C1=O (configuration not stated) |  | 55.4 µM | > 100 µM | 87.4 µM | > 100 µM | 33.7 µM | > 100 µM | > 100 µM | > 100 µM | > 100 | 25.1 µM | 4.71 µM | 4.72 µM | 21.6 µM | 16.5 µM | 15.4 µM | 9.97 | 14.6 µM | 16.6 µM | 
CC1=C(SCCC(=O)OC(C[Se]C2=C(C)C(=O)c3ccccc3C2=O)C(=O)NCCCCCC(=O)OCc2ccccc2)C(=O)c2ccccc2C1=O (configuration not stated) | > 100 µM | 12.9 µM | 22.6 µM | 8.52 µM | > 100 µM | 4.22 µM | > 100 µM | 18.2 µM | 16.7 µM | 20.9 | 7.95 µM | 3.04 µM | 2.01 µM | 4.08 µM | 5.01 µM | 4.63 µM | 8.04 | 3.81 µM | 3.09 µM | 11.9 µM
CCOC(=O)c1cc2c(cc1Cl)SC(=Nc1ccccc1)N(S(=O)(=O)c1ccc(Cl)cc1)S2(=O)=O | 24.6 µM | 30.4 µM | > 100 µM |  | 38.7 µM | 26 µM | 37.3 µM | 26.3 µM | 33.2 µM | 23.7 | 9.06 µM | 15 µM | 11.2 µM | 11.7 µM | 12.2 µM | 15.4 µM | 10.2 | 14.5 µM |  | 11.4 µM
CNC(=O)c1cc(Oc2ccc(NC(=O)Nc3ccc(Cl)c(C(F)(F)F)c3)c(F)c2)ccn1 | 7.25 µM and 5.73 µM | 8.64 µM and 9.09 µM | 8.52 µM and 5.74 µM | 2.68 µM and 4.1 µM | 7.13 µM and > 10 µM | 6.75 µM and 8.81 µM | 5.75 µM and 6.59 µM | 11.6 µM and > 10 µM | 12.1 µM and > 10 µM | 4.73 | 2.28 µM and 1.36 µM | 1.21 µM and 1.81 µM | 1.38 µM and 1.28 µM | 2.21 µM and 1.91 µM | 3.05 µM and 3.03 µM | 2.35 µM and 2.24 µM | 0.98 | 2.56 µM and 2.67 µM | 0.518 µM and 0.539 µM | 2.75 µM and 1.82 µM
NC(=O)c1cc([N+](=O)[O-])c(Cl)c([N+](=O)[O-])c1Cl | 4.58 µM | 12.6 µM | 1.47 µM |  |  |  |  | 2.35 µM | 3.27 µM | 2.85 | 0.369 µM |  |  |  | 1.14 µM | 1.75 µM | 1.39 | 3.41 µM |  | 1.9 µM
CC1CC[P+](c2ccccc2)(c2ccccc2)c2c1ccc1ccccc21 (configuration not stated) | 88.2 µM | 6.68 µM |  | 21.4 µM | 17.8 µM | 41.9 µM | 37.6 µM | > 58.8 µM | 37.1 µM | 20.1 | 2.02 µM |  |  |  | 3.09 µM |  |  |  |  | 35.1 µM
O=C(CCCN1CCC(O)(c2ccc(Cl)cc2)CC1)c1ccc(F)cc1 |  | > 100 µM | 43.2 µM |  | > 100 µM | 34.6 µM | > 100 µM | 45.2 µM | > 100 µM | 21.4 |  |  |  |  |  |  |  |  |  | 
Cc1cccc2nc3ccccc3c(Nc3ccc(NS(C)(=O)=O)cc3)c12 | 19.4 µM | 27.7 µM | 24 µM | 5.53 µM | 26.8 µM | 23 µM | 5.91 µM | 37 µM | 15.4 µM |  | 7.61 µM | 5.62 µM | 9.95 µM | 1.72 µM | 14.1 µM | 3.55 µM |  | 14.3 µM | 2.05 µM | 3.81 µM
CCCCCCCCCCCCCC[N+](C)(C)CCCCCCCCCCCCCC | 28 µM | 5.47 µM |  | 4.89 µM | 9.8 µM |  | 6.44 µM | 20.5 µM |  | 5.7 |  | 2.89 µM |  | 2.41 µM | 3.58 µM |  | 1.89 | 2.38 µM | 2.07 µM | 5.07 µM
COCc1c(-c2cc3cc(C)cc(OC)c3s2)c2c(N)ncnn2c1CN1CCNC(=O)C1 | 0.0803 µM | 17.1 µM | 24.4 µM | 32.7 µM |  | 35.4 µM | 48.5 µM | > 100 µM | 67.1 µM | 23.5 | 5.13 µM |  | 4.12 µM | 3.22 µM | 8.08 µM | 4.02 µM | 4.08 | 1.03 µM | 8.71 µM | 0.0102 µM
CCc1ccc(CCC(=O)Nc2ncc(Cc3ccc(Cl)cc3)s2)o1 | 0.844 µM | > 100 µM |  | 1.93 µM | > 100 µM |  | > 100 µM | 0.682 µM | > 100 µM | > 100 |  | 0.365 µM | 0.271 µM | 0.53 µM | 0.248 µM | 0.753 µM | 0.491 | 2.12 µM | 0.289 µM | 0.208 µM
O=C(Nc1ccccc1)Nc1ccc2cc3ccc(NC(=O)Nc4ccccc4)cc3nc2c1 | 8.87 µM | 3.69 µM | 1.88 µM |  | 1.1 µM |  | 2.13 µM | 2.45 µM | 2.72 µM | 3.21 | 0.573 µM | 0.363 µM |  | 0.559 µM | 1.1 µM | 1.34 µM | 1.75 | 1.88 µM |  | 2.74 µM

— PubChem BioAssay (NCI)
